Experimental data: patent publication US10716771B2, “Pharmaceutical composition for preventing or treating immune diseases or inflammatory diseases, containing biguanide derivative compound as active ingredient” (THE CATHOLIC UNIVERSITY OF KOREA INDUSTRY-ACADEMIC …, priority 2013, dated 2020)

Experiments:
IL-17 = IL-17 sandwich ELISA, Example 8-3; assay type: cell-based, mouse; conditions: incubated supernatant
Procedure: (§1) In order to evaluate an arthritis therapeutic effect of the biguanide derivative compound of the present invention, in a rheumatoid arthritis animal model, cytotoxicity, generation of autoantibody, expression of inflammatory cytokines and regulatory T cells (Treg), and osteoclast differentiation were measured. Like Examples, metformin was used as a control group. In order to evaluate an effect of suppressing the expression of the inflammatory cytokine of the biguanide derivative compound of the present invention, the incubated supernatant was collected and the expression degrees of IL-17 and TNF-α of a mouse were examined by using a sandwich ELISA. […] of a monoclonal anti-IL-17 or anti-TNF-α was reacted in a 96-well plate at 4° C. overnight and then a non-specific binding was blocked by a blocking solution (1% BSA/PBST) after the reaction. An IL-17 or TNF-α recombinant was continuously diluted by 1/2 to be used as a standard, added with the cell-incubated supernatant, and reacted at room temperature for 2 hrs. Thereafter, biotinylated anti-IL-17 or anti-TNF-α was added and reacted at room temperature for 2 hrs, washed four times after the reaction, diluted with a diluted ExtraAvidin-alkaline phosphatase conjugate, and reacted at room temperature for 2 hrs. After the reaction, a PNPP/DEA was added and colored, and absorbance was measured at a wavelength of 405 nm.

IgG = IgG (autoantibody) ELISA, Example 8-2; assay type: cell-based, mouse; conditions: incubated supernatant, compared with metformin
Procedure: In order to evaluate an arthritis therapeutic effect of the biguanide derivative compound of the present invention, in a rheumatoid arthritis animal model, cytotoxicity, generation of autoantibody, expression of inflammatory cytokines and regulatory T cells (Treg), and osteoclast differentiation were measured. Like Examples, metformin was used as a control group.
In order to examine an effect of suppressing the generation of autoantibody of the biguanide derivative compound of the present invention, the incubated supernatant was collected and the IgG expression degree was examined by using an ELISA. A monoclonal anti-IgG was reacted at 4° C. overnight in a 96-well plate and then a non-specific binding was blocked by a blocking solution. A mouse control serum was continuously diluted by 1/2 to be used as a standard, added with the cell-incubated supernatant, and reacted at room temperature for 2 hrs. Thereafter, HRP-anti-IgG was reacted at room temperature for 2 hrs, washed four times after reaction, added with the diluted HRP-conjugate, and reacted at room temperature for 2 hrs.

TNF-α [1] = experiment: TNF-α generation in LPS-treated mouse spleen cells, ELISA; assay type: cell-based; conditions: 2, 20, 200 μM with LPS 100 ng/ml, 3 days; compared with only LPS
Procedure: Spleen cells were obtained from a normal mouse of C57BL/6 (Orient Company, Korea). That is, the tissue of the spleen extracted from the mouse was finely grinded by using a teasing slide and then erythrocytes in the spleen were removed by an erythrocyte hemolysis solution. Thereafter, a PBS buffer solution was added, centrifuged, and washed to obtain spleen cells.
Since it is known that Metformin used as the diabetes therapeutic agent currently on the market has a slight effect of blocking TNF-α as the inflammatory cytokine, in order to verify whether the biguanide derivative compound of the present invention has activity of reducing the generation of TNF-α, the expression degree of TNF-α was measured by an ELISA assay. […]
In order to measure an amount of the generated TNF-α cytokine, a supernatant of the incubated cells was collected and the TNF-α generation degree was examined by using an ELISA. […] Thereafter, a PNPP/DEA solution was added and colored, and then the absorbance was measured at a wavelength of 405 nm.

osteoclast = experiment: Osteoclast differentiation, TRAP staining; assay type: cell-based, mouse; conditions: bone marrow of arthritis animal model, MCSF 10 ng/ml and RANKL 50 ng/ml
Procedure: In order to verify whether the biguanide derivative compound of the present invention suppresses the osteoclast differentiation, while a bone marrow extracted from a leg in an arthritis animal model was treated with MCSF (10 ng/ml) and RANKL (50 ng/ml) to differentiate the osteoclast, metformin, SD-196, SD-216, and SD-217 were treated, respectively, and the differentiation degrees of the osteoclast were evaluated. The evaluation was performed by using TRAP straining.

Th17 = Th17 activity by flow cytometry in rheumatoid arthritis disease model with metabolic syndrome; assay type: cell-based; conditions: flow cytometry anti-CD4, anti-IL-17
Procedure: Further, the incubated cells were analyzed by flow cytometry using anti-CD4-percp and anti-IL-17-Pe fluorescent antibodies, and as a result, it was verified that SD-196, 216 and 217 suppressed the activity of Th17 and simultaneously activated the expression of the regulatory T cells (Treg) (see FIG. 13).

TNF-α [2] = experiment: TNF-α sandwich ELISA, Example 8-3; assay type: cell-based, mouse; conditions: incubated supernatant
Procedure: as §1

normal cells = experiment: Cytotoxicity (MTT) in normal (human) cells; assay type: cell-based
Procedure: In order to examine cytotoxicity of the biguanide derivative compound of the present invention, an MTT assay was performed. Cells were isolated from the spleen in a normal mouse group and the isolated cells were incubated for 3 days in the concentration of 0.5 μg/ml of anti-CD3 or 100 ng/ml of LPS 100, and metformin, SD-196, SD-216 or SD-217 was treated for each concentration and incubated for 3 days. […] In order to evaluate a development possibility of the biguanide derivative compound of the present invention as an agent for preventing or treating immune diseases, effects of modulating cytotoxicity and generation of inflammatory cytokines by targeting normal cells were measured by the same method as Example 8.

SMILES | IL-17 inflammatory cytokine expression (IL-17) | expression of IgG (IgG) | generated amount of TNF-α (TNF-α [1]) | differentiation of the osteoclast (osteoclast) | activity of Th17 (Th17) | TNF-α inflammatory cytokine expression (TNF-α [2]) | cytotoxicity (normal cells)
N=C(N)NC(=N)Nc1ccc(F)cc1F [SD-000217, 1-(2,4-difluorophenyl)biguanide] | significantly suppressed | significantly suppressed | very significantly reduced | significantly suppress | suppressed | significantly suppressed | no cytotoxicity
CC(C)NC(=N)NC(=N)N [SD-000196, 1-isopropylbiguanide] | significantly suppressed | significantly suppressed |  | significantly suppress | suppressed | significantly suppressed | 
NC(N)=N/C(N)=N/c1cccc(F)c1 [SD-000216, 1-(3-fluorophenyl)biguanide] | significantly suppressed | significantly suppressed | very significantly reduced | significantly suppress | suppressed | significantly suppressed | no cytotoxicity
